{"source": "patent US12331042B2", "about": "“Compounds suitable for the treatment and prophylaxis of muscle wasting and other conditions” (priority 2019, dated 2025)", "key": {"Murine C2C12 myoblasts": {"test_system": "Murine C2C12 myoblasts", "experiment": "Cytotoxicity, LDH release in cultured myoblasts", "type": "cell-based", "conditions": "increasing concentrations, 24 h", "experimental": "(§1) Murine C2C12 myoblasts (CRL-1772, ATCC) were cultured in DMEM (Lonza; Basel, Switzerland) supplemented with 10% fetal calf serum (FCS; Gibco®Invitrogen, Carlsbad, CA). For induction of differentiation into myotubes, subconfluent cultures were switched to DMEM containing 2% horse serum (Sigma-Aldrich; Seelze, Germany). Myotubes were subsequently pre-treated for 2 h with increasing compound concentrations (0.1 to 10 μmol/L, dissolved in DMSO) or with an equal volume of DMSO before treatment for 24 h with 10 μmol/L dexamethasone (DEX; Sigma-Aldrich; Seelze, Germany). Myotube diameter was then evaluated by image analysis software (Analysis 3.0, Olympus Soft Imaging Solutions GmbH, Munster, Germany). To determine cytotoxicity of selected compounds, myoblasts or myotubes were incubated with increasing concentrations for 24 h. Subsequently, the concentration of lactate dehydrogenase (LDH) activity was quantified in the cell culture supernatant as a measure for cell destruction as described in Bellocci et al., Anal Biochem, 2008, 374, 48-55."}, "[1]": {"test_system": "MAFbx, MuRF1, CARP, BAX, eIF2B-delta expression", "experiment": "Western blot analysis of TA muscle, MCT mice", "type": "in vivo", "description": "The Western blot analyses consisted of frozen TA muscle samples being homogenized in RIPA buffer (50 mmol/L Tris, 150 mmol/L sodium chloride, 1 mmol/L EDTA, 1% NP-40, 0.25% sodium-deoxycholate, 0.1% SDS, 1% Triton X-100; pH 7.4) or relax buffer (90 mmol/L HEPES, 126 mmol/L potassium chloride, 1 mmol/L MgCl, 50 mmol/L EGTA, 8 mmol/L ATP, 10 mmol/1 Creatinephosphate; pH 7.4) containing a protease inhibitor mix (Inhibitor mix M, Serva, Heidelberg, Germany), sonicated, and centrifuged at 16,000×g for 5 min. Protein concentration of the supernatant was determined (BCA assay, Pierce, Bonn, Germany) and aliquots (5-20 μg) were separated by SDS-polyacrylamide gel electrophoresis. Proteins were transferred to a polyvinylidene fluoride membrane (PVDF) and incubated overnight at 4° C. with the following primary antibodies: MAFbx ( 1/2000, Eurogentec, Seraing, Belgium), MuRF1 ( 1/1000, Myomedix Ltd., Neckargemünd, Germany), CARP ( 1/500, Myomedix Ltd., Neckargemünd, Germany), BAX ( 1/1000; Abcam, Cambridge, UK), and eIF2B-delta ( 1/200; Santa Cruz Biotechnolgy, Santa Cruz, USA). Membranes were subsequently incubated with a horseradish peroxidase-conjugated secondary antibody and specific bands visualized by enzymatic chemiluminescence (Super Signal West Pico, Thermo Fisher Scientific Inc., Bonn, Germany) and densitometry quantified using a 1D scan software package (Scanalytics Inc., Rockville, USA). Blots were then normalized to the loading control GAPDH ( 1/30000; HyTest Ltd, Turku, Finland). All data are presented as fold change relative to sham."}, "[2]": {"test_system": "Mrps5 (mitochondrial ribosomal protein 5)", "experiment": "Proteomic analysis of diaphragm tissue, CHF mice", "type": "in vivo, Mus musculus", "conditions": "CHF mice with vs without compound feeding, P=0.02", "experimental": "To analyze the molecular mechanisms underlying the observed physiological changes and benefits of MyoMed-946-treated mice suffering from CHF, comparative quantitative proteomic analysis as well as Western blot analysis of diaphragm tissue from sham, CHF, and CHF+MyoMed-946-treated mice were performed.\nMass spectrometry-based proteomic analysis was performed at the DZHK Core Facility, Bad Nauheim, Germany. Obtained MS raw data were processed by MaxQuant (1.6.0.1) using the Andromeda search engine and the Uniprot database for Mus musculus (as of 20 Apr. 2017). At a false discovery rate of 1% (both peptide and protein levels), >2600 protein groups were identified. The reductive dimethylation protocol employed (see Boersema et al., Nat Protoc, 2009, 4, 484-494) yielded pairwise relative comparative quantitation (ratios) between proteins from CHF+MyoMed-946, CHF, and sham conditions, which were statistically queried for significant differences using standard statistical tests. Several proteins were identified to be statistically different (e.g. TNNT3, Timm9, Ccdc5, Adi1, Ptges3, and Ndufa3)."}, "[3]": {"test_system": "C57BL/6N mice inoculated with B16F10 melanoma cells", "experiment": "Tumor mouse model (B16F10 melanoma)", "type": "in vivo", "conditions": "0.1 weight-% in chow, vs tumor mice", "description": "8 weeks old female C57BL/6N mice were inoculated with B16F10 melanoma cells (9×10^5 cells) or saline (sham, n=10). Within the first 3 days after tumor inoculation, the B16F10 mice as well as the sham mice received regular chow. Then the B16F10 mice were randomly divided in three groups, where the first group received MyoMed-946 chow (Tumor+MyoMed-946, n=10), the second group received MyoMed-205 chow (Tumor+MyoMed-205, n=10) and the third group received an identical chow but without the addition of the selected compounds (Tumor, n=10). The compound concentration in the chow was 0.1 weight-%, resulting in a daily compound intake per mouse of about 3 mg. Also the sham group was fed with an identical chow but without the addition of the selected compound. Wire-hang tests (muscle function) were performed with each mouse 9, 16 and 23 days after tumor inoculation. For this purpose, a standard wire hang construction was used with a wire (length: of 40 cm, diameter: 2.5 mm) at a height of 70 cm above the floor. Under the center of the wire a large box with sawdust was placed. For testing, the mouse was hung to the wire with the two limbs and hang time was recorded. Each animal had three attempts for 180 sec. max each. After three attempts, the maximal holding impulse was calculated (hanging time×body weight).\nMice were sacrificed 25 days after tumor inoculation. […]"}, "[4]": {"test_system": "eIF2B4, AS3MT, ATPAF1, GHDC, BAX protein levels in diaphragm", "experiment": "Proteomic analysis (mass spectrometry) of diaphragm, MCT mice", "type": "in vivo", "conditions": "MCT + MyoMed-946/MCT, n=3 per group", "experimental": "Proteins from frozen diaphragm samples in sham, MCT, and MCT+compound mice (n=3 per group) were powdered under liquid N2. Mass spectrometry was then performed at the DZHK mass spectrometry core facility at Bad Nauheim, as described in Konzer et al., Methods in molecular biology, 2013, 1005, 39-52. The relative ratios for MCT/sham and MCT+compound/MCT were determined, with only hits deemed to be differentially expressed and highly significant (P<0.01) further studied by Western blot."}, "[5]": {"test_system": "C2C12 myotubes (myocytes)", "experiment": "Cytotoxicity, LDH release in cultured myotubes (myocytes)", "type": "cell-based, Murine", "conditions": "increasing concentrations, 24 h", "experimental": "as §1"}}, "note": "Entries after “also recorded” stand apart in the source; their conditions may differ.", "data": [{"smiles": "Cc1cc(=O)oc2cc(OCc3ccc(C(=O)OCC(=O)NC(=O)NCc4ccco4)cc3)ccc12", "note": "[MyoMed-946, [2-(2-furylmethylcarbamoylamino)-2-oxo-ethyl] 4-[(4-methyl-2-oxo-chromen-7-yl)oxymethyl]benzoate]", "values": [{"measurement": "toxicity (LDH release)", "setting": "Murine C2C12 myoblasts", "result": "low toxicity"}, {"measurement": "increase in CARP expression", "setting": "[1]; MCT+compound vs MCT", "result": "attenuated; also recorded: abolished"}, {"measurement": "increased protein expression of MuRF1", "setting": "[1]; MCT+compound vs MCT", "result": "attenuated; also recorded: prevented"}, {"measurement": "protein expression of MAFBx", "setting": "[1]; MCT+compound vs MCT", "result": "No changes are detected; also recorded: no effects were observed"}, {"measurement": "expression of eIF2B (delta subunit)", "setting": "[1]; MCT+compound vs MCT, confirmed by immunoblotting", "result": "upregulation"}, {"measurement": "expression of BAX", "setting": "[1]; MCT+compound, upregulated in MCT vs sham", "result": "normalized"}, {"measurement": "Mrps5 protein level (proteomics)", "setting": "[2]", "result": "significantly up-regulated"}, {"measurement": "tumor induced skeletal muscle atrophy (TA muscle weight)", "setting": "[3]; 25 days after inoculation, at least to certain extent", "result": "attenuated"}, {"measurement": "loss of muscle function in wire-hang test", "setting": "[3]; 9, 16 and 23 days after inoculation", "result": "attenuated; also recorded: significantly attenuates the loss of muscle function"}, {"measurement": "Protein Ratio (log2), AS3MT", "setting": "[4]", "result": "−0.31"}, {"measurement": "Protein Ratio (log2), ATPAF1", "setting": "[4]", "result": "−0.68"}, {"measurement": "Protein Ratio (log2), BAX", "setting": "[4]", "result": "−0.73"}, {"measurement": "Protein Ratio (log2), GHDC", "setting": "[4]", "result": "−0.39"}, {"measurement": "Protein Ratio (log2), eIF2B4", "setting": "[4]", "result": 0.32}, {"measurement": "toxicity (LDH release)", "setting": "[5]", "result": "low toxicity"}]}]}
